Reference: patent US8741892B2, “Compounds” (Boehringer Ingelheim International GmbH, priority 2011, dated 2014)

Target: T1, human recombinant mGluR5 (Homo sapiens, UniProt P41594)
T1 construct: expressed in transfected cells; host or cells: HEK 293
Experiment: positive modulation of mGluR5, calcium based FLIPR assay
Details: HEK 293 cell line expressing human recombinant mGluR5; EC50 of the modulation from peak Ca fluorescence signal after glutamate at approx. 5% basal stimulation
Procedure: The positive modulation of mGluR5 is measured in a HEK 293 cell line expressing human recombinant mGluR5 and is detected with calcium based FLIPR assay. The cells are cultured with DMEM supplemented with 10% FCS, 2 μg/mL tetracycline, 100 μg/mL hygromycin and 500 μg/mL geneticin. The cell culture media is exchanged for tetracycline-free cell culture media 3-7 days before the assay. One day before the assay the cell culture medium is exchanged to DMEM without glutamine and phenol red and supplemented with 10% FCS, 100 μg/mL hygromycin and 500 μg/mL geneticin. On the assay day, the medium of the subconfluent cultures is removed and the cells are detached by addition of 2.5 ml EDTA (0.02%) per 175 cm2 culture flask for 1 minute. The cells are resuspend in Ringer solution (140 mM NaCl, 5 mM KCl, 2.5 mM CaCl2, 1.5 mM MgCl2, 5 mM Glucose, 10 mM Hepes; adjusted to pH 7.4 with NaOH), pooled and Ringer solution added to adjust the volume to 50 mL. The cell suspension is centrifuged for […] at 1500 U/min (425 g). The supernatant is removed and the cells washed a second time with 50 ml fresh Ringer solution and centrifuged again as before. The supernatant is again removed and the pellet resuspended in Ringer solution to 1,000,000 cells/ml (1×10^6 cells/mL). The cells are plated onto BD BioCoat Poly-D-Lysine 384 well plates (20.000 cells/well; 20 μl/well). The lid covered plates are then incubated until use at 37° C./10% CO2. For dye loading, 20 μl of Calcium-4 assay kit solution (prepared according to the manufacturer's description in Ringer solution) are added to the cells and the plates are incubated for […] 37° C. and then […] at room temperature.
Controls, Compound Dilution and Assay Execution:
Each assay plate contained wells with “high” and “low” controls:
Low controls 1% DMSO/ringer solution+basal glutamate activation (defined as 100% CTL).
High controls 10 μM CDPPB+basal glutamate activation (defined as 200% CTL).
Test compounds are dissolved and diluted in DMSO to 100-fold the desired concentrations. In a second step, the compounds are diluted in Ringer solution such that the compounds are 4-fold more concentrated than the desired final assay concentration. The final DMSO concentration was 1%.
20 μl of each compound solution are then transferred to the assay plate and the Ca2+ kinetic is measured to determine any intrinsic compound activity. After 5 mM incubation in the FLIPR device, the second stimulation with 20 μl of glutamate in Ringer solution (glutamate concentration adjusted to approximately 5% basal stimulation of the maximal possible glutamate effect) is added and the kinetic Ca2+ response of the wells was measured for the modulation effect.
The peak height of the Ca release related fluorescence signal (9-66) is used for the EC50. The EC50 of the modulation is calculated over a nonlinear regression with GraphPad Prism (Table 1).

T1 sequence (P41594 21-1212): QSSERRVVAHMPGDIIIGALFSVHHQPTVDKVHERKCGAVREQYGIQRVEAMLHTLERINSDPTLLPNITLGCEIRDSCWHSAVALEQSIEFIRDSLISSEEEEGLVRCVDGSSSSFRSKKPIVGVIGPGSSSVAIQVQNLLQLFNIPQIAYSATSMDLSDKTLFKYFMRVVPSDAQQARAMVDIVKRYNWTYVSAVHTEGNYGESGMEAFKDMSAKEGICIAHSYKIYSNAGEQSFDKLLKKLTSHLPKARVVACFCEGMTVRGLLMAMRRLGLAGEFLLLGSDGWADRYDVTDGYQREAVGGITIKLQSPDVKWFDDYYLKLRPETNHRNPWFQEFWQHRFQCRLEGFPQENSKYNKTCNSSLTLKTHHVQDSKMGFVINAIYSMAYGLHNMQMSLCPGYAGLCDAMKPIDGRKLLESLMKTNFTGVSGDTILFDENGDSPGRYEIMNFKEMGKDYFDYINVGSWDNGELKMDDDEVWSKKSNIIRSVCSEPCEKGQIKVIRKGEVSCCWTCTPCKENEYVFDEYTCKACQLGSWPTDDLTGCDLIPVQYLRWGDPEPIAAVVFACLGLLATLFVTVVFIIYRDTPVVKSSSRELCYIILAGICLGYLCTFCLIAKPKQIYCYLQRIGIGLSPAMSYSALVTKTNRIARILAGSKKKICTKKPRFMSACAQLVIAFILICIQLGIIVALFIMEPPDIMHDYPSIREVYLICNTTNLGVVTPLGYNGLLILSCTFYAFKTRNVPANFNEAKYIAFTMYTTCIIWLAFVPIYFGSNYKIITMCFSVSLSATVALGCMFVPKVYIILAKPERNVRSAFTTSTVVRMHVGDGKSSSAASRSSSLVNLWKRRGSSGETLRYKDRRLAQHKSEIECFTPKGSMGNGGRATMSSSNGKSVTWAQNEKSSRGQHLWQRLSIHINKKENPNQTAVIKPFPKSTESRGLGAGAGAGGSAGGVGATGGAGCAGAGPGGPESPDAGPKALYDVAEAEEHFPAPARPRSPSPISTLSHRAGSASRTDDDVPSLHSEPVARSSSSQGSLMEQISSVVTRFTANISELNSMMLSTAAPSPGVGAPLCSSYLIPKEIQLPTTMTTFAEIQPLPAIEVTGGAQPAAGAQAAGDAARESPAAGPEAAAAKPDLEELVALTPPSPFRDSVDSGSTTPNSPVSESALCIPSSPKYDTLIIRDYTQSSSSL

| Structure (SMILES) | EC50 |
| --- | --- |
| COc1cccc(C2CCN(C(=O)Cn3nc(-c4ccc(F)c(C)c4)cc3-c3ccccc3)CC2)c1 [Example 7.02.146] | 295 nM |
| O=C(Cn1nc(-c2ccccc2)cc1-c1ccccc1)N1CCC(c2nccs2)CC1 [Example 7.01.044] | 1850 nM |
| Cc1nc2c(o1)CN(C(=O)Cn1nc(-c3ccc(OC(F)F)cc3)cc1-c1ccccc1)C2 [Example 7.02.223] | 13 nM |
| COc1cc(-c2cc(-c3ccccc3)n(CC(=O)N3CC=C(c4ncc(C)o4)CC3)n2)ccc1F [Example 7.02.153] | 15 nM |
| Cc1cnc(N2CCN(C(=O)Cn3nc(-c4ccc(OC(F)F)cc4)cc3-c3ccccc3)CC2)o1 [Example 7.02.226] | 11 nM |
| COc1cc(-c2cc(-c3ccccc3)n(CC(=O)N3CCC(c4ncc(C)o4)CC3)n2)ccc1F [Example 7.02.152] | 67 nM |
| Nc1nnc(C2CCN(C(=O)Cn3nc(-c4ccccc4)cc3-c3ccccc3)CC2)o1 [Example 7.01.033] | 1530 nM |
| O=C(Cn1nc(-c2ccccc2)cc1-c1ccccc1)N1CCN(c2nccs2)CC1 [Example 7.01.043] | 40 nM |
| Cc1cnc(C2=CCN(C(=O)Cn3nc(-c4ccc(F)c(C)c4)cc3-c3ccccc3)CC2)s1 [Example 7.02.134] | 15 nM |
| COc1cnc(C2=CCN(C(=O)Cn3nc(-c4cccc(C)c4)cc3-c3ccccc3)CC2)nc1 [Example 7.02.204] | 47 nM |
| Cc1ccc(-c2cc(-c3ccccc3)n(CC(=O)N3Cc4nc(C)sc4C3)n2)nc1 [Example 7.02.118] | 127 nM |
| O=C(Cn1nc(-c2ccccc2)cc1-c1ccccc1)N1CCN(c2ccccc2F)C(=O)C1 [Example 7.01.014] | 463 nM |
| COc1ccc(-c2cc(-c3ccccc3)n(CC(=O)N3CCN(c4noc(C)n4)CC3)n2)cc1C [Example 7.02.232] | 104 nM |
| Cc1csc(N2CCN(C(=O)Cn3nc(-c4ccc(F)c(C)c4)cc3-c3ccccc3)CC2)n1 [Example 7.02.158] | 116 nM |
| Cc1nc(N2CCN(C(=O)Cn3nc(-c4ccc(OC(F)F)cc4)cc3-c3ccccc3)CC2)no1 [Example 7.02.224] | 2 nM |
| Cc1coc(N2CCN(C(=O)Cn3nc(-c4ccc(F)c(C)c4)cc3-c3ccccc3)CC2)n1 [Example 7.02.165] | 18 nM |
| Cc1nnc(N2CCN(C(=O)Cn3nc(-c4ccc(C(F)F)cc4)cc3-c3ccccc3)CC2)o1 [Example 7.02.258] | 31 nM |
| CC(=O)Nc1ccc2c(c1)CCN(C(=O)Cn1nc(-c3ccc(F)c(C)c3)cc1-c1ccccc1)CC2 [Example 7.01.097] | 109 nM |

| Structure (SMILES) | EC50 |
| --- | --- |
| COc1ccc2c(c1)CCN(C(=O)Cn1nc(-c3ccccc3)cc1-c1ccccc1)CC2 [Example 7.01.008] | 1180 nM |
| O=C(Cn1nc(-c2ccccc2)cc1-c1ccccc1)N1CCc2c(cccc2C(F)(F)F)C1 [Example 7.01.045] | 689 nM |
| Cc1nc2c(o1)CN(C(=O)Cn1nc(-c3cc(C)c(F)cn3)cc1-c1ccccc1)C2 [Example 7.02.177] | 111 nM |
| COc1ccccc1N1CCN(C(=O)Cn2nc(-c3ccccc3)cc2-c2ccccc2)CC1=O [Example 7.01.011] | 1970 nM |
| Cc1nnc(C2=CCN(C(=O)Cn3nc(-c4ccc(C)c(C)c4)cc3-c3ccccc3)CC2)o1 [Example 7.02.114] | 29 nM |
| Cc1cc(-c2cc(-c3ccccc3)n(CC(=O)N3Cc4cccnc4C3)n2)ccc1F [Example 7.02.229] | 31 nM |
| CCc1cc(-c2cccc(C)c2)nn1CC(=O)N1Cc2nc(C)sc2C1 [Example 7.02.080] | 321 nM |
| CCc1cc(-c2cccc(C#N)c2)nn1CC(=O)N1Cc2nc(C)sc2C1 [Example 7.02.186] | 326 nM |
| Cc1nc2c(s1)CN(C(=O)Cn1nc(-c3ccc(OC(F)F)cc3)cc1-c1ccccc1)C2 [Example 7.02.222] | 23 nM |
| CCc1cc(-c2cccc(C)c2)nn1CC(=O)N1CC=C(c2cc(OC)ncn2)CC1 [Example 7.02.093] | 120 nM |
| Cc1nc2c(s1)CN(C(=O)Cn1nc(-c3ccc(C)c(F)c3)cc1-c1ccccc1)C2 [Example 7.02.252] | 69 nM |
| Cc1nc2c(o1)CN(C(=O)Cn1nc(-c3ccc(F)c(C)n3)cc1-c1ccccc1)C2 [Example 7.02.173] | 38 nM |
| O=C(Cn1nc(-c2ccccc2)cc1-c1ccccc1)N1CCN(c2cccc(F)c2)C(=O)C1 [Example 7.01.034] | 398 nM |
| COc1cc(C2CCN(C(=O)Cn3nc(-c4ccc(F)c(C)c4)cc3-c3ccccc3)CC2)ncn1 [Example 7.02.021] | 55 nM |
| COc1cc(C2=CCN(C(=O)Cn3nc(-c4ccc(F)c(C)c4)cc3-c3ccccc3)CC2)ncn1 [Example 7.02.022] | 11 nM |
| COc1cc2c(cc1OC)CN(C(=O)Cn1nc(-c3ccccc3)cc1-c1ccccc1)CC2 [Example 7.02.006] | 1950 nM |
| O=C(Cn1nc(-c2ccccc2)cc1-c1ccccc1)N1CCc2c(Cl)cccc2C1 [Example 7.01.039] | 752 nM |
| COc1cccc(N2CCN(C(=O)Cn3nc(-c4ccccc4)cc3-c3ccccc3)CC2=O)c1 [Example 7.01.020] | 258 nM |

Continued, values first:

| EC50 | Structure (SMILES) |
| --- | --- |
| 12 nM | Cc1nc2c(s1)CCN(C(=O)Cn1nc(-c3ccc(F)c(C)c3)cc1CC(C)C)CC2 [Example 7.02.119] |
| 37 nM | CCCc1cc(-c2ccc(F)c(C)c2)nn1CC(=O)N1CCN(c2cccc(OC)c2)C(=O)C1 [Example 7.02.032] |
| 16 nM | Cc1cccc(-c2cc(-c3ccccc3)n(CC(=O)N3CCc4nc(N)sc4CC3)n2)c1 [Example 7.02.199] |
| 258 nM | CCc1cc(-c2cccc(C#N)c2)nn1CC(=O)N1CCc2nc(N)sc2CC1 [Example 7.02.185] |
| 61 nM | CCCc1cc(-c2ccc(F)c(C)c2)nn1CC(=O)N1CCN(c2nnc(C)o2)CC1 [Example 7.02.209] |
| 245 nM | CCc1cc(-c2ccc(F)c(C)c2)nn1CC(=O)N1CCc2ccc(N)cc2CC1 [Example 7.01.072] |
| 156 nM | CCc1cc(-c2cccc(Cl)c2)nn1CC(=O)N1CCc2nc(N)sc2CC1 [Example 7.02.110] |
| 236 nM | CCc1cc(-c2ccc(F)c(C)c2)nn1CC(=O)N1CCc2nc(N)sc2C1 [Example 7.01.068] |
| 412 nM | CCc1cc(-c2ccc(F)c(C)c2)nn1CC(=O)N1CCc2ccsc2C1 [Example 7.01.076] |
| 173 nM | CCc1cc(-c2ccc(F)c(C)c2)nn1CC(=O)N1CCc2ccc(OC)cc2CC1 [Example 7.01.065] |
| 146 nM | CCc1cc(-c2ccc(C)c(F)c2)nn1CC(=O)N1CCc2nc(C)sc2CC1 [Example 7.02.238] |
| 35 nM | Cc1cc(-c2cc(-c3ccccc3)n(CC(=O)N3CCc4nc(N)sc4C3)n2)ccc1F [Example 7.01.093] |
| 750 nM | Nc1nc2c(s1)CCN(C(=O)Cn1nc(-c3ccc(F)cn3)cc1-c1ccccc1)CC2 [Example 7.02.058] |
| 29 nM | CCCc1cc(-c2ccc(F)c(C)c2)nn1CC(=O)N1CCc2nc(N)sc2CC1 [Example 7.02.033] |
| 8 nM | Cc1nc2c(o1)CN(C(=O)Cn1nc(-c3ccc(F)c(C)c3)cc1-c1ccccc1)CC2 [Example 7.02.097] |
| 53 nM | COCc1cc(-c2ccc(F)c(C)c2)nn1CC(=O)N1CCc2nc(C)sc2CC1 [Example 7.01.055] |
| 145 nM | CCCc1cc(-c2ccc(F)c(C)c2)nn1CC(=O)N1CCC(c2nnc(C)o2)CC1 [Example 7.02.210] |
| 68 nM | Cc1nc2c(s1)CCN(C(=O)Cn1nc(-c3cc(C)c(C)cn3)cc1-c1ccccc1)CC2 [Example 7.02.126] |
| 1230 nM | Cc1cc(-c2cc(-c3ccccc3)nn2CC(=O)N2CCc3nc(C)sc3CC2)ccn1 [Example 7.01.064] |
| 37 nM | COc1ccc2c(n1)CCN(C(=O)Cn1nc(-c3ccc(F)c(C)c3)cc1-c1ccccc1)CC2 [Example 7.01.091] |
| 128 nM | CCc1cc(-c2ccc(F)c(C)c2)nn1CC(=O)N1CCc2ccc(C(=O)OC)cc2CC1 [Example 7.01.070] |
| 199 nM | CCCc1cc(-c2ccc(F)c(C)c2)nn1CC(=O)N1CCC(c2cc(OC)ncn2)CC1 [Example 7.02.068] |
| 171 nM | CCc1cc(-c2ccc(C)c(C)c2)nn1CC(=O)N1CCc2nc(N)sc2CC1 [Example 7.02.074] |
| 40 nM | CCCc1cc(-c2ccc(F)c(C)c2)nn1CC(=O)N1CC=C(c2cc(OC)ncn2)CC1 [Example 7.02.070] |
